Experimental data taken from patent publication US4680382A, “Analogues of actinomycin D” (priority 1986, dated 1987).

Legend:
[1] = target: T1, NADPH cytochrome P-450 reductase (rat liver microsomes) (Rattus norvegicus, UniProt P00388); test: Stimulation of NADPH oxidation in rat hepatic microsomal incubations; conditions: for NADPH oxid: 340 nm, 37° C., phenobarbital induced microsomes, mean ± standard error of triplicate, basal 9.11 ± 0.30; for percentage stimulation of NADPH oxidation over basal rate: (drug-stimulated rate - basal rate)/basal rate × 100
T1 sequence (P00388 1-678): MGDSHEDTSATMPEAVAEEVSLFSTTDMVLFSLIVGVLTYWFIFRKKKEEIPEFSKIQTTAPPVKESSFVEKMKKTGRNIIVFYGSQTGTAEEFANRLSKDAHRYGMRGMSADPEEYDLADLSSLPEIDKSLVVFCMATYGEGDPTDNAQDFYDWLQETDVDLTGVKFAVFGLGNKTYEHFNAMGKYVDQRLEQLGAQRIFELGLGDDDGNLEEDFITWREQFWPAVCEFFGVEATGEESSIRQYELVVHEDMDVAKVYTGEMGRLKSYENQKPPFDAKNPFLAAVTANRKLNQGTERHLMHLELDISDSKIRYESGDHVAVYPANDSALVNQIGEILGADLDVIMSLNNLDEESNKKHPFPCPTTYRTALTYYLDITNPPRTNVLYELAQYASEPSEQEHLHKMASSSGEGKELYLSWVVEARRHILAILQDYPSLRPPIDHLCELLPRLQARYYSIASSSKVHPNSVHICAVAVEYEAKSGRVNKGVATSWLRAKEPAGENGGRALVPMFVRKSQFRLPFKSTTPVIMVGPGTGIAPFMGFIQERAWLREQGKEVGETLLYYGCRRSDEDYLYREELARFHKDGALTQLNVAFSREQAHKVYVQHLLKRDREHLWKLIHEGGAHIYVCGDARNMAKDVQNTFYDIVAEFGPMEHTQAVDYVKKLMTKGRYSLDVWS

rat hepatic microsomes = test: Stimulation of adrenochrome formation (superoxide generation) in rat hepatic microsomal incubations; conditions: for adrenochrome formation: 480 nm, 37° C., no more than 100 μM drug, basal 2.11 ± 0.11; for adrenochrome formation / percentage stimulation of adrenochrome formation over basal rate: no SOD
[2] = Maximum tolerated dose (LD10) in tumor-free BDF1 male mice; assay type: in vivo
Method: (§1) These analogues were also tested in tumor-free BDF1 male mice for determination of their MTD values (Table VIII). The animals (18-22 g) were given a broad range of doses of drugs in 5% dimethyl sulfoxide-saline on days 1, 5 and 9. Drugs were administered ip and the maximum tolerated doses of agents which caused death in only 10% of the tested animals in 21 days (i.e., LD10) were recorded as MTD. […] However, the MED values of 7-hydroxy-AMD and its precursor AMD-OZL 10a are high and are seven to tenfold of the MED values of 4a and 8a. On the basis of these MED values, the therapeutic indices of 8a and 4a are 70 and 96. The therapeutic index of 2a is 13, of 10a 10, and of AMD only 4.
^c MTD (maximum tolerated dose) is the lethal dose
(milligram/kilogram) for 10% normal BDF1 male mice (18-22 g); animal
calculated from a plot of logdose vs. percent mortality.

B16 melanoma = test: In vivo antitumor activity against B16 melanoma; set-up: species or system BDF1 mice
Method: AMD-OZL analogues 9a and 10a were about as active as AMD and 7-hydroxy-AMD. The potencies of these analogues are reduced in comparison to that of AMD; their optimal doses were higher than that of AMD.
^a 0.2 mL of 1:5 (weight/volume) brei of B16 melanoma implanted
ip on day 0 in groups of nine BDF1 mice. Drugs administered ip.
^b MST (range) median survival time in days (range of individual
^c % ILS (surv), percent increase in lifespan (survivors on day

[3] = system: P388 lymphocytic leukemia; test: In vivo antitumor activity against P388 leukemia; set-up: species or system BDF1 mice
Method: The analogues were tested for their antitumor activities in P388 lymphocytic leukemia in male BDF1 mice. The tumor was implanted intraperitoneally (ip) with 10^6 cells. The drugs were also administered ip once daily on days 1, 5 and 9, beginning 1 day after tumor transplantation. Analogues were tested over a range of doses, but only the optimal nontoxic doses are listed.
^a 10^6 P388 cells implanted ip on day 0 into groups of eight
BDF1 male mice. Drugs administered ip. MST (range), median survival
time in days (range of individual animal deaths); % ILS, percent increase
in life span, calculated 100(T/C - 1), where T and C are median survival
times of treated and control animals; surv, number of surviving mice/tota

P388 Leukemia = test: Minimum effective dose and therapeutic index vs. P388 leukemia; assay type: in vivo; conditions: dose giving 45% increase in life span in P388 tumor bearing mice; ip days 1, 5 and 9
Method: as §1
^a Drugs administered ip once on days 1, 5 and 9 starting 1 day after
tumor implantation. Determinations were made from analysis of plotted
^b MED (minimum effective dose) is the dose (milligram/kilogram)
providing an increase in life span of 45% over control in P388 tumor

P388 cells [4] = test: Inhibition of RNA synthesis (2-[14C]uridine incorporation) in P388 cells; assay type: cell-based, murine
Method: (§2) Experiments for inhibition of nucleic acid synthesis in tumor cells in vitro were carried out with P388 tumor cells, details of which were reported by Sengupta et al, J. Med. Chem., 18, 1175 (1975). […] AMD-OZLs inhibit either process with equal activity and with the potency of its metabolite 7-hydroxy-AMD.
^b IC50 (RNA) = concentration of inhibitor in μM required to
cause 50% reduction (in 1 hr) in 2[^14 C]uridine incorporation into
acid precipitable material with use of P388 cells.

P388 cells [5] = test: Inhibition of DNA synthesis (methyl-[3H]thymidine incorporation) in P388 cells; assay type: cell-based, murine; conditions: 50% reduction in 1 hr of methyl-[3H]thymidine incorporation, read-out: IC50 DNA synth
Method: as §2
^c IC50 (DNA) = concentration of inhibitor in μM required to
cause 50% reduction (in 1 hr) in methyl[^3 H]thymidine incorporation
into acid precipitable material with use of P388 cells.

[6] = system: CCRF-CEM human lymphoblastic leukemic cells; test: In vitro cytotoxicity against CCRF-CEM cells; assay type: cell-based; conditions: 48 hr
Method: ^a Human lymphoblastic leukemic cells.
The analogues were tested for their cytotoxicity against tumor cells (time, 48 hr). […] This may be associated with the initial microsomal transformation of the "reverse" analogues to "symmetrical" analogue and/or other alternate bioactive forms (e.g., free-radicals, O2^-), followed by deactivation via formation of conjugates and facile elimination of these from the host. The "reverse" analogues show reduced toxicity in vivo and also the tritiated "reverse" 7a is metabolized in vitro.

liver microsomes = test: EPR detection of free-radical intermediates with liver microsomes and NADPH (anaerobic); assay type: biochemical; conditions: NADPH, potassium phosphate buffer
Method: No free-radical intermediates were detected in the absence of enzyme or substrates.
Melting points are determined on a Thomas-Hoover melting point apparatus at a heating rate of 2° C./min. Thin-layer chromatography was performed on silica gel plates (Brinkmann Instrument Inc.). Solvent systems were (A) EtOAc-acetone (4:1), (B) CHCl3 -MeOH (9:1) and (C) Cifferri, the organic phase of the mixture EtOAc-MeOH-H2 O (20:1:20). High-performance liquid chromatography was carried out on a Varian Model 5020 gradient liquid chromatograph equipped with a CD-111L chromatography data system and fitted with a Varian reversed-phase C18 column with the following solvent systems: I, CH3 CN-5 mM NH4 OAc buffer, pH 6.4 (68:32 isocratic), flow rate 1.5 mL/min; II, 65-95% water-methanol gradient for 70 min, 1 mL/min; III, 10-90% H2 O-MeOH gradient for 120 min, 1 mL/min, with UV-visible variable- and fixed-wavelength dual detectors at 254, 440, 470 and 520 nm. IR spectra were obtained on a Perkin-Elmer Model 237 Infra Cord with KBr micropellets or in chloroform solutions. UV-visible spectra were obtained on a Gilford 250 spectrophorometer, which, with the addition of a base-line reference compensator (Analog Multiplexer 5053) and thermoprogrammer, auto four cell programmer and thermoelectric cell holder 2577, were used to obtain thermal denaturation curves. Specific rotation values were determined in chloroform solutions with a Cary 60 spectropolarimeter. NMR spectra were obtained in a JEOL FQ-90 MHz spectrometer equipped with Fourier transform. EPR spectra analyses were recorded in a Varian E-9 EPR spectrometer. All elemental analyses were within ±0.4%.

SMILES: CCN(CC)C(=O)c1c2nc3c(C(=O)N(CC)CC)ccc(C)c3oc-2c(C)c(=O)c1N [1b]
- NADPH oxid [1]: 8.9 ± 0.90 nmol min^-1 (mg of protein)^-1
- percentage stimulation of NADPH oxidation over basal rate [1]: -2%
- adrenochrome formation (rat hepatic microsomes): 2.13 ± 0.19 nmol min^-1 (mg of protein)^-1
- percentage stimulation of adrenochrome formation over basal rate (rat hepatic microsomes): +1%

SMILES: Cc1c2oc3c(C)c(O)cc(C(=O)N[C@@H]4C(=O)N[C@H](C(C)C)C(=O)N5CCC[C@H]5C(=O)N(C)CC(=O)N(C)[C@@H](C(C)C)C(=O)O[C@@H]4C)c3nc-2c(C(=O)N[C@@H]2C(=O)N[C@H](C(C)C)C(=O)N3CCC[C@H]3C(=O)N(C)CC(=O)N(C)[C@@H](C(C)C)C(=O)O[C@@H]2C)c(N)c1=O [2a, 7-hydroxyactinomycin D, reference compound]
- MTD (maximum tolerated dose) ([2]; lethal dose for 10% normal BDF1 male mice, 21 days (LD10), ip days 1, 5 and 9): 3.50 milligram/kilogram
- MTD as fold of the MTD of AMD ([2]; tumor-free BDF1 male mice): about 14 fold
- NADPH oxid [1]: 29.9 ± 1.91 nmol min^-1 (mg of protein)^-1
- percentage stimulation of NADPH oxidation over basal rate [1]: 228%
- adrenochrome formation (rat hepatic microsomes): 7.29 ± 0.79 nmol min^-1 (mg of protein)^-1
- adrenochrome formation in presence of SOD (rat hepatic microsomes; SOD (superoxide dismutase) 5 μg/mL added): inhibited
- percentage stimulation of adrenochrome formation over basal rate (rat hepatic microsomes): 245%
- % ILS (B16 melanoma; at optimal dose): 52%
- surv (survivors on day 65/total injected) (B16 melanoma; at optimal dose): 1/9
- MST (range) (B16 melanoma; at optimal dose, control 29 (20-48)): 44 (39-53) days
- optimal dose (B16 melanoma; ip, days 1, 5, 9): 1200 μg/kg per inj
- surv (surviving mice/total mice at 60 days) ([3]; P388, at optimal dose): 0/8
- % ILS ([3]; P388, at optimal dose, 100(T/C - 1)): 136%
- MST (range) ([3]; P388, at optimal dose, control 11.0 (9-12)): 26.0 (19-39) days
- optimal dose ([3]; P388, ip, days 1, 5 and 9, optimal nontoxic dose): 1200.0 μg/kg per inj
- MED (minimum effective dose) (P388 Leukemia): 0.275 milligram/kilogram
- IC50 (P388 cells [4]; 50% reduction in 1 hr of 2-[14C]uridine incorporation, read-out: IC50 RNA synth): 5.1 µM
- IC50 DNA/IC50 RNA (P388 cells [4]; ratio): 1.00
- IC50 (P388 cells [5]): 5.1 µM
- in vitro (CCRF-CEM) ID50 [6]: 1 µM

SMILES: CCN(CC)C(=O)c1c2nc3c(C(=O)N(CC)CC)cc(O)c(C)c3oc-2c(C)c(=O)c1N [2b]
- NADPH oxid [1]: 8.9 ± 0.90 nmol min^-1 (mg of protein)^-1
- percentage stimulation of NADPH oxidation over basal rate [1]: -2%
- adrenochrome formation (rat hepatic microsomes): 2.13 ± 0.19 nmol min^-1 (mg of protein)^-1
- percentage stimulation of adrenochrome formation over basal rate (rat hepatic microsomes): +1%

SMILES: CCN(CC)C(=O)c1c2nc3c(C(=O)N(CC)CC)c(N)c(O)c(C)c3oc-2c(C)c(=O)c1N [4b, 2,8-Diamino-1,9-bis(diethylcarbamoyl)-7-hydroxy-4,6-dimethyl-3-H-phenoxazine-3-one]
- NADPH oxid [1]: 8.9 ± 0.90 nmol min^-1 (mg of protein)^-1
- percentage stimulation of NADPH oxidation over basal rate [1]: -2%
- adrenochrome formation (rat hepatic microsomes): 2.13 ± 0.19 nmol min^-1 (mg of protein)^-1
- percentage stimulation of adrenochrome formation over basal rate (rat hepatic microsomes): +1%
- free-radical intermediate detected by EPR (liver microsomes): no free-radical intermediates were detectable
